# Calls of active or inactive are those of the source.
# Experiments:
# [1] = molecular target: T1, Bifunctional phosphoribosylaminoimidazole carboxylase/phosphoribosylaminoimidazole succinocarboxamide synthetase (Homo sapiens, UniProt P22234)
# T1 sequence (P22234 whole entry): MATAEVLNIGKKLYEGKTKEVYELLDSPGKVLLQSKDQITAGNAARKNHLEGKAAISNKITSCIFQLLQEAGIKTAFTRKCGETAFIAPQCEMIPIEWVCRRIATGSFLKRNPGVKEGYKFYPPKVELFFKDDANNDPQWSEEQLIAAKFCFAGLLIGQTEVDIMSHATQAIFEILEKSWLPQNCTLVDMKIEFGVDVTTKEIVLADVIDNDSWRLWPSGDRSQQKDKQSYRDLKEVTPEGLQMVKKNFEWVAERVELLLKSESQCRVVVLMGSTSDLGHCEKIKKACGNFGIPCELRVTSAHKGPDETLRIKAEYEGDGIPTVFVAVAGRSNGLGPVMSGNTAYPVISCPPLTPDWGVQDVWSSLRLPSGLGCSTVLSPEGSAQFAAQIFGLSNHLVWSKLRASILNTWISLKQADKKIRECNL
# [2] = molecular target: T2, Succinate--CoA ligase [ADP-forming] subunit beta, mitochondrial (Homo sapiens, UniProt Q9P2R7)
# T2 sequence (Q9P2R7 whole entry): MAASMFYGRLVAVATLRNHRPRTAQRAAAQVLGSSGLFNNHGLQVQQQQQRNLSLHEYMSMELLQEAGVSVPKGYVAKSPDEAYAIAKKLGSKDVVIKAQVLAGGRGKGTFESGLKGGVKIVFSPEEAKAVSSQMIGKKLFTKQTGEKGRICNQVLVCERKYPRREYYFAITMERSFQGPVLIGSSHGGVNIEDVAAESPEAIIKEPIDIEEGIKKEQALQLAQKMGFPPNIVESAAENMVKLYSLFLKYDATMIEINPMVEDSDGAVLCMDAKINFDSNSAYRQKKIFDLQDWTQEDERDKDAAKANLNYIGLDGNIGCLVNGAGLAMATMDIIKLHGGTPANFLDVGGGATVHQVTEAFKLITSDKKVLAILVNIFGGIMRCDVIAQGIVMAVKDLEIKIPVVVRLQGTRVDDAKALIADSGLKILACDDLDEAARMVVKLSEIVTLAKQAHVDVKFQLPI
# [3] = molecular target: T3, Dual specificity mitogen-activated protein kinase kinase 6 (Homo sapiens, UniProt P52564)
# T3 sequence (P52564 whole entry): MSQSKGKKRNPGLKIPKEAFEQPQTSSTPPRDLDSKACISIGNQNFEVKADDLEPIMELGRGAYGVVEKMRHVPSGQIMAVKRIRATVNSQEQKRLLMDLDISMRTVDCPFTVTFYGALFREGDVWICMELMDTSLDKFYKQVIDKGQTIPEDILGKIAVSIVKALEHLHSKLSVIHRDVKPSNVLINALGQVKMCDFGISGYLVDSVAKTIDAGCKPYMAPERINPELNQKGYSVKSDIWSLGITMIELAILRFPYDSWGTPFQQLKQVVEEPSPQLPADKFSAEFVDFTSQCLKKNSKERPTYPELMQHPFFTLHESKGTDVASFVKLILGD
# [4] = molecular target: T4, Ribosyldihydronicotinamide dehydrogenase [quinone] (Homo sapiens, UniProt P16083)
# T4 sequence (P16083 whole entry): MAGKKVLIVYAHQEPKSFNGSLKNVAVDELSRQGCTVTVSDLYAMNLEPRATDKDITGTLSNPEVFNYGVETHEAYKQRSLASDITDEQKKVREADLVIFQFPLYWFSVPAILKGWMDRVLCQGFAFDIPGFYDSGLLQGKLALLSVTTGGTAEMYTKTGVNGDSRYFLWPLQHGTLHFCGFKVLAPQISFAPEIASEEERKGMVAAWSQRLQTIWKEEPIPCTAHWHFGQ
# [5] = molecular target: T5, Serine/threonine-protein kinase ULK1 (Homo sapiens, UniProt O75385)
# T5 sequence (O75385 whole entry): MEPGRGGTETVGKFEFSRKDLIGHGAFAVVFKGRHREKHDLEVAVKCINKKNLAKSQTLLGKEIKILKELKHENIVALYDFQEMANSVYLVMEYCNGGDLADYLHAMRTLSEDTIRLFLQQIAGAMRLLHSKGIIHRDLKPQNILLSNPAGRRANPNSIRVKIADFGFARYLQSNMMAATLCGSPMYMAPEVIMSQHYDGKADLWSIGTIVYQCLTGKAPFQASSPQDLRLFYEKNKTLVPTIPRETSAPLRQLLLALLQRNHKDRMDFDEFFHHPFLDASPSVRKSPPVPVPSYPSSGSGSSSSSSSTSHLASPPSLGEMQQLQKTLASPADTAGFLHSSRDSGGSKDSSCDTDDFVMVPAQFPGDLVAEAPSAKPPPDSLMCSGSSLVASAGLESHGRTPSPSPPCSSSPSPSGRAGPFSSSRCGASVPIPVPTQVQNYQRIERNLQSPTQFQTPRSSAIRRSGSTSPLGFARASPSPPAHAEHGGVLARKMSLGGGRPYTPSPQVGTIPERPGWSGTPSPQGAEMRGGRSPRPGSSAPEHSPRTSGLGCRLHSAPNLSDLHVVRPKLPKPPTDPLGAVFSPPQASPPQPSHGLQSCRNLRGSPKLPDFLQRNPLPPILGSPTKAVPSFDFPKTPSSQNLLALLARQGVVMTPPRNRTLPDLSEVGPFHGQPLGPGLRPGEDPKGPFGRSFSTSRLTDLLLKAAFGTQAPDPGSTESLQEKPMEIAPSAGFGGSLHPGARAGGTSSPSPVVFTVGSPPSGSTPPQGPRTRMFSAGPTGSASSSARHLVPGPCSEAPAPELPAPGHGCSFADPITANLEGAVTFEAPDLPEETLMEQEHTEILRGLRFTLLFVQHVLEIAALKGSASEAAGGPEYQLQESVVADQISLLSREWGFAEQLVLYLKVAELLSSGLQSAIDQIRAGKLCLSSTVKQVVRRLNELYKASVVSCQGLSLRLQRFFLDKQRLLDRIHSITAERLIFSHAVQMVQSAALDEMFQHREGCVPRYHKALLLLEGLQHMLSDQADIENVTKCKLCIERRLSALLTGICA
# Actin-related protein 2 = Actin-related protein 2 (Homo sapiens, UniProt P61160)
# [6] = molecular target: Chromodomain-helicase-DNA-binding protein 4 (Homo sapiens, UniProt Q14839)
# Sequence of Chromodomain-helicase-DNA-binding protein 4 (Q14839 whole entry): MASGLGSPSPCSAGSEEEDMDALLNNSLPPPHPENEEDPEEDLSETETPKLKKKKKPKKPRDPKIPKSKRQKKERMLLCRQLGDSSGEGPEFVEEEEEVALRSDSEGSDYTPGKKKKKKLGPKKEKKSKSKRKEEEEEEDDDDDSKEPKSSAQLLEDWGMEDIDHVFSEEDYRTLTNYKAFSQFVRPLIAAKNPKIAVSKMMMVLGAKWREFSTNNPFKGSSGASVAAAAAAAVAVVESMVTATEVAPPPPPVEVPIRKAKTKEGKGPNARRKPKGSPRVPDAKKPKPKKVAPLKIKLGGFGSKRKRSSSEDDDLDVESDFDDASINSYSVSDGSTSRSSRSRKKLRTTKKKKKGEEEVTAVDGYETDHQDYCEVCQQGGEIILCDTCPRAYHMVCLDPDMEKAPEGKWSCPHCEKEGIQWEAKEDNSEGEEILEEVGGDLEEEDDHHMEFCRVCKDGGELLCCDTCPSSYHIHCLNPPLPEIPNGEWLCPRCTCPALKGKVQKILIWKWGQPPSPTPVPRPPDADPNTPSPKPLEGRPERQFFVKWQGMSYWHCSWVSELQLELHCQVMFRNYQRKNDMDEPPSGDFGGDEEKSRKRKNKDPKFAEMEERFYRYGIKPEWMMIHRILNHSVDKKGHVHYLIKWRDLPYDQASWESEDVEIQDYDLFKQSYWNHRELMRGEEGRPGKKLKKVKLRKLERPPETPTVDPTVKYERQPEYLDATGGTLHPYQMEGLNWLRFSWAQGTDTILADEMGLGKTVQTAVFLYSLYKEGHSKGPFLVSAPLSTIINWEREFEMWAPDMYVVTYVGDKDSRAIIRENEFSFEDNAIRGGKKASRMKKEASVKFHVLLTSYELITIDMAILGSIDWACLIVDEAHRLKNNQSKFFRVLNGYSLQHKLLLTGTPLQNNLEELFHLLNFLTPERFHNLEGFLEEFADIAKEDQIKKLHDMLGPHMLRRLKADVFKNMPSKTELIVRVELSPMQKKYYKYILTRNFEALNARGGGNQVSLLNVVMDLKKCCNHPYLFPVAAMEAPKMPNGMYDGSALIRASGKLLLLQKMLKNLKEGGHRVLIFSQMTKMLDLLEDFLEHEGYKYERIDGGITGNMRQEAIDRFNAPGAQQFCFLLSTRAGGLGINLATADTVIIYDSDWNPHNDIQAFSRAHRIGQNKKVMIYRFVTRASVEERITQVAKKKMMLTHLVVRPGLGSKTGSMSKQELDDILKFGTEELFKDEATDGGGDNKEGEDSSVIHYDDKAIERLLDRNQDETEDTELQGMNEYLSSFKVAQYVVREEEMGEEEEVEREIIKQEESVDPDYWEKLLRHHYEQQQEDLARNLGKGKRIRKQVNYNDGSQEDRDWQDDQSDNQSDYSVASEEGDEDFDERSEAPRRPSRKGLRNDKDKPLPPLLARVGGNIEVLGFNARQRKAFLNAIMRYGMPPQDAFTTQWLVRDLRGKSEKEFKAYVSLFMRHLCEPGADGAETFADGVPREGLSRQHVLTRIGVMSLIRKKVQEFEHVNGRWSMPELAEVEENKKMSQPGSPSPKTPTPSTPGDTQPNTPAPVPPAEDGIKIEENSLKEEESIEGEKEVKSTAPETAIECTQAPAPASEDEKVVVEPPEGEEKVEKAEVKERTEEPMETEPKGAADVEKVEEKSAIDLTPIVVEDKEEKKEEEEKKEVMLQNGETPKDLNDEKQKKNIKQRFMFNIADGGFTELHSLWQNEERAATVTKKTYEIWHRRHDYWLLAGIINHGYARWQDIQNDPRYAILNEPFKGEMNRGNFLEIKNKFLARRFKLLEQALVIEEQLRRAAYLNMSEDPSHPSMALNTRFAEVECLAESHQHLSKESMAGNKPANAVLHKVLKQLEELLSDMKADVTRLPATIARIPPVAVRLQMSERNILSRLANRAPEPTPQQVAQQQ
# Also: in the data inactive means no Kd found up to 30 µM.
Compound,Kd [1],Kd [4],Kd (Actin-related protein 2),Kd [6],Kd [2],Kd [3],Kd [5]
CN(c1ncccc1CNc1nc(Nc2ccc3c(c2)CC(=O)N3)ncc1C(F)(F)F)S(C)(=O)=O [PF-00562271],> 30 µM (inactive),> 30 µM (inactive),> 30 µM (inactive),> 30 µM (inactive),> 30 µM (inactive),–,> 30 µM (inactive)
NC[C@@](O)(c1ccc(Cl)cc1)c1ccc(-c2cn[nH]c2)cc1 [AT-13148],> 30 µM (inactive),> 30 µM (inactive),> 30 µM (inactive),> 30 µM (inactive),> 30 µM (inactive),> 30 µM (inactive),–
COc1cc(F)c(F)c(Nc2ccc(I)cc2F)c1NS(=O)(=O)C1(C[C@H](O)CO)CC1 [REFAMETINIB],> 30 µM (inactive),> 30 µM (inactive),–,–,> 30 µM (inactive),> 30 µM (inactive),> 30 µM (inactive)
CC(C)CC(=O)Nc1[nH]nc2c1CN(C(=O)C1CCN(C)CC1)C2(C)C [PHA-793887],> 30 µM (inactive),> 30 µM (inactive),> 30 µM (inactive),> 30 µM (inactive),> 30 µM (inactive),–,0.838 µM
CC1(COc2ccc3c(c2)ncn3-c2ccc3cccc(N4CCC(N)CC4)c3n2)COC1 [CRENOLANIB],> 30 µM (inactive),–,> 30 µM (inactive),–,0.007 µM,> 30 µM (inactive),0.839 µM (active)
CNC(=O)c1ccc(Nc2ncc(C(F)(F)F)c(NCc3nccnc3N(C)S(C)(=O)=O)n2)cc1 [DEFACTINIB],> 30 µM (inactive),> 30 µM (inactive),–,> 30 µM (inactive),> 30 µM (inactive),> 30 µM (inactive),> 30 µM (inactive)
N#CCNC(=O)c1ccc(-c2ccnc(Nc3ccc(N4CCOCC4)cc3)n2)cc1 [MOMELOTINIB],> 30 µM (inactive),> 30 µM (inactive),> 30 µM (inactive),–,> 30 µM (inactive),> 30 µM (inactive),> 30 µM (inactive)
C[C@@]1(C(=O)Nc2ccc(F)nc2)CCCN1c1nc(Nc2cc(C3CC3)n[nH]2)c2cccn2n1 [BMS-754807],> 30 µM (inactive),> 30 µM (inactive),> 30 µM (inactive),> 30 µM (inactive),> 30 µM (inactive),–,–
O=S(=O)(c1cccc2cnccc12)N1CCCNCC1 [FASUDIL],> 30 µM (inactive),2.45 µM (active),> 30 µM (inactive),> 30 µM (inactive),> 30 µM (inactive),> 30 µM (inactive),–
C=CCN(/C=C1/C(=O)O[C@H](COC)[C@@]2(C)C1=C(O)C(=O)C1=C2[C@H](OC(C)=O)C[C@]2(C)C(=O)CC[C@@H]12)CC=C [SONOLISIB],> 30 µM (inactive),> 30 µM (inactive),–,–,> 30 µM (inactive),> 30 µM (inactive),> 30 µM (inactive)

# Continued, in another order:
Kd [1],Kd [4],Kd (Actin-related protein 2),Kd [6],Compound,Kd [2],Kd [3],Kd [5]
> 30 µM (inactive),> 30 µM (inactive),> 30 µM (inactive),–,NC(=O)c1ccc(N(C(N)=O)c2c(F)cccc2F)nc1-c1ccc(F)cc1F [VX-702],> 30 µM (inactive),> 30 µM (inactive),> 30 µM (inactive)
> 30 µM (inactive),> 30 µM (inactive),> 30 µM (inactive),> 30 µM (inactive),Cc1cc(Nc2nc(N[C@@H](C)c3ncc(F)cn3)ncc2Cl)n[nH]1 [AZD-1480],–,> 30 µM (inactive),> 30 µM (inactive)
> 30 µM (inactive),> 30 µM (inactive),> 30 µM (inactive),> 30 µM (inactive),COc1cc2c(Oc3ccc4[nH]c(C)cc4c3F)ncnc2cc1OCCCN1CCCC1 [CEDIRANIB],> 30 µM (inactive),–,–
> 30 µM (inactive),> 30 µM (inactive),> 30 µM (inactive),> 30 µM (inactive),COc1cc2c(N3CCN(C(=O)Nc4ccc(OC(C)C)cc4)CC3)ncnc2cc1OCCCN1CCCCC1 [TANDUTINIB],–,–,–
> 30 µM (inactive),> 30 µM (inactive),> 30 µM (inactive),> 30 µM (inactive),CN(C)C/C=C/C(=O)Nc1cc2c(Nc3ccc(F)c(Cl)c3)ncnc2cc1O[C@H]1CCOC1 [AFATINIB],–,–,–
> 30 µM (inactive),> 30 µM (inactive),> 30 µM (inactive),–,Cc1cc(-c2cc(OC(=O)c3ccccc3)ccc2Cl)cc2nnc(Nc3ccc(OCCN4CCCC4)cc3)nc12 [TG100-801],–,> 30 µM (inactive),> 30 µM (inactive)
> 30 µM (inactive),> 30 µM (inactive),> 30 µM (inactive),> 30 µM (inactive),Cn1cnc2c(F)c(Nc3ccc(Br)cc3Cl)c(C(=O)NOCCO)cc21 [SELUMETINIB],> 30 µM (inactive),–,–
> 30 µM (inactive),1.41 µM (active),> 30 µM (inactive),> 30 µM (inactive),c1cc(OCCN2CCCCC2)cc(-c2n[nH]c3ccc(-c4nc[nH]n4)cc23)c1 [CC-401],–,> 30 µM (inactive),> 30 µM (inactive)
> 30 µM (inactive),> 30 µM (inactive),> 30 µM (inactive),> 30 µM (inactive),O=C(NOC[C@H](O)CO)c1ccc(F)c(F)c1Nc1ccc(I)cc1F [MIRDAMETINIB],–,> 30 µM (inactive),> 30 µM (inactive)
> 30 µM (inactive),> 30 µM (inactive),> 30 µM (inactive),> 30 µM (inactive),CC1(C)CNc2cc(NC(=O)c3cccnc3NCc3ccncc3)ccc21 [MOTESANIB],> 30 µM (inactive),–,–
> 30 µM (inactive),> 30 µM (inactive),> 30 µM (inactive),> 30 µM (inactive),CC(C)(O)CC(=O)NCCn1ccc2ncnc(Nc3ccc(Oc4cccc(C(F)(F)F)c4)c(Cl)c3)c21 [TAK-285],> 30 µM (inactive),> 30 µM (inactive),–
> 30 µM (inactive),> 30 µM (inactive),> 30 µM (inactive),> 30 µM (inactive),O=C(Nc1ccc(OC(F)(F)F)cc1)c1sccc1NCc1ccnc2ccccc12 [OSI-930],–,> 30 µM (inactive),> 30 µM (inactive)
